This passage reports IC50 results from US12358907B2, “Substituted pyrrolidine amides III” (GRÜNENTHAL GMBH, priority 2019, dated 2025).

Where two headings read alike, the source gives them in different places.

This test has as its target glucocorticoid receptor (GAL4 DBD-GR) (Homo sapiens (Human), UniProt P04150). As to the kind of experiment: GR cell-based assays (GRE agonist / GRE antagonist), CHO-Gal4/GR luciferase reporter. An excerpt: Potential selective glucocorticoid receptor modulators of this intervention can be tested for modulation of the activity of the glucocorticoid receptor using cell-based assays. These assays involve a Chinese hamster ovary (CHO) cell line which contains fragments of the glucocorticoid receptor as well as fusion proteins. The glucocorticoid receptor fragments used are capable of binding the ligand (e.g. beclomethasone) to identify molecules that compete for binding with glucocorticoid receptor ligands. In more detail, the glucocorticoid receptor ligand binding domain is fused to the DNA binding domain (DBD) of the transcription factor GAL4 (GAL4 DBD-GR) and is stably integrated into a CHO cell line containing a GAL4-UAS-Luciferase reporter construct. […] After cell lysis the luminescence that is produced by luciferase after addition of the substrate is detected and EC50 or IC50 values can be calcuated. Engagement of molecules which induce gene expression via glucocortocoid receptor binding to the DNA leads to expression of the luciferase gene under the control of the fusion protein GAL4 DBD-GR and therefore to a dose-dependent increase of the luminescence signal. Binding of molecules which repress beclomethasone-induced gene expression of the luciferase gene under the control of the fusion protein GAL4 DBD-GR leads to a dose-dependent reduction of the luminescence signal.
The reporter cell line CHO-Gal4/GR consisted of a chinese hamster ovary (CHO) cell line (Leibniz Institute DSMZ—German Collection of Microorganisms and Cell Cultures GmbH: ACC-110) containing a firefly luciferase gene under the control of the GR ligand binding domain fused to the DNA binding domain (DBD) of GAL4 (GAL4 DBD-GR) stably integrated into CHO cells. This cell line was established by stable transfection of CHO cells with a GAL4-UAS-Luciferase reporter construct. In a subsequent step the ligand binding domain of the GR cloned into pIRES2-EGFP-GAL4 containing the DNA binding domain of GAL4 from pFA-AT2 was transfected. This fusion construct activated firefly luciferase expression under the control of a multimerized GAL4 upstream activation sequence (UAS). The signal of the emitted luminescence was recorded by the FLIPR^TETRA. This allowed for specific detection of ligand-induced activation of the GR and therefore for the identification of compounds with agonistic properties. The GAL4/UAS reporter was premixed with a vector that constitutively expressed Renilla luciferase, which served as an internal positive control for transfection efficiency.
The complete culture medium for the assay was: • DMEM F-12 (1:1) MIXTURE (LONZA cat. No: BE04-687F/U1) 500 mL • 5 mL of 100 mM Sodium Pyruvate (LONZA cat. No: BE12-115E) • 25 mL of 7.5% Sodium Bicarbonate (LONZA cat. No BE17-613E) • 6.5 mL of 1 M Hepes (LONZA cat. No: BE17-737E) • 5 mL of 100× Penicillin/Streptomycin (LONZA cat. No DE17-602E) • 50 mL of Fetal Bovine Serum (Euroclone cat. No ECS 0180L) • 0.25 mL of 10 mg/mL Puromycin (InvivoGen cat.: ant-pr-1) • 0.5 mL of 100 mg/mL Zeocin (InvivoGen cat.: ant-zn-1)
Cryo-preserved CHO-Gal4/GR cells were suspended in complete medium and 5000 cells/25 μl/well were seeded into the wells of 384-well polystyrene assay plates (Thermo Scientific, cat. #4332) and cultured at 37° C., 5% CO2 and 95% humidity. After 24 hours growth medium was carefully removed and replaced by 30 μl Opti-MEM (GIBCO, cat. #31985062) as assay buffer. To test the compounds an 8-point half-log compound dilution curve was generated in 100% DMSO starting from a 2 mM stock and compounds were then diluted 1:50 in Opti-MEM. 10 μl of compounds were then added to the wells containing 30 μl Opti-MEM resulting in a final assay concentration range from 10 μM to 0.003 μM in 0.5% DMSO. Compounds were tested at 8 concentrations in quadruplicate data points. […] Finally, cells were lysed with 20 μl of Triton/Luciferin solution and the signal of the emitted luminescence was recorded at the FLIPR^TETRA for 2 minutes. […]

Setting [1] is: CHO-Gal4/GR reporter cells, agonist mode (EC50) or antagonist mode against beclometasone (IC50), 6 hour incubation.

Sequence of glucocorticoid receptor (GAL4 DBD-GR) (P04150 524-758): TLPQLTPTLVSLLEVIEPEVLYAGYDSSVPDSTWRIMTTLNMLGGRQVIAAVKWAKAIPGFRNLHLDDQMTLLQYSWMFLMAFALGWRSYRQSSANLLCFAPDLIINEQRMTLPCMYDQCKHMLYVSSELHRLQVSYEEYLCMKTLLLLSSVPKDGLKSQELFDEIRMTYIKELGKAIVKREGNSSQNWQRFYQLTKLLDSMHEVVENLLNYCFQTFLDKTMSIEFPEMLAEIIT

In the case of `Cc1cccc([C@@H]2[C@@H](NC(=O)C3CC3)[C@H](C)C(=O)N2c2ccc3c(cnn3-c3ccc(F)cc3)c2)c1` (racemic) [Example 63, N-[rac-(2R,3S,4S)-1-[1-(4-Fluorophenyl)-1H-indazol-5-yl]-4-methyl-2-m-tolyl-5-oxo-pyrrolidin-3-yl]-cyclopropanecarboxylic acid amide], the IC50 (read-out: IC50 or EC50) was in the range of 100 to 1000 nM.
Same read-out and setting: then `Cc1cccc([C@@H]2[C@@H](NC(=O)c3ncccn3)[C@@H](C)C(=O)N2c2ccc3c(cnn3-c3ccc(F)cc3)c2)c1` (racemic) [Example 74, N-[rac-(2R,3S,4R)-1-[1-(4-Fluorophenyl)-1H-indazol-5-yl]-4-methyl-2-m-tolyl-5-oxo-pyrrolidin-3-yl]-pyrimidine-2-carboxylic acid amide], with 100 to 1000 nM; and `CC1(C)C(=O)N(c2ccc3c(cnn3-c3ccc(F)cc3)c2)[C@H](c2ccccc2)[C@H]1NS(C)(=O)=O` [Example 34a, N-((2R,3S)-1-(1-(4-fluorophenyl)-1H-indazol-5-yl)-4,4-dimethyl-5-oxo-2-phenylpyrrolidin-3-yl)methanesulfonamide], with less than 100 nM.
Consider `Cc1noc(C[C@@H]2C(=O)N(c3ccc4c(cnn4-c4ccc(F)cc4)c3)[C@H](c3ccccc3)[C@H]2NC(=O)C2CC2)n1` [Example 138, N-((2R,3S,4S)-1-(1-(4-fluorophenyl)-1H-indazol-5-yl)-4-((3-methyl-1,2,4-oxadiazol-5-yl)methyl)-5-oxo-2-phenylpyrrolidin-3-yl)cyclopropanecarboxamide], for which, for the setting “read-out: IC50 or EC50”, the IC50 lay within 100 to 1000 nM.
Regarding `Cc1ncc(C(=O)N[C@H]2[C@H](c3ccccc3)N(c3ccc4c(cnn4-c4ccc(F)cc4)c3)C(=O)C2(C)C)o1` [Example 44b, N-((2S,3R)-1-(1-(4-fluorophenyl)-1H-indazol-5-yl)-4,4-dimethyl-5-oxo-2-phenylpyrrolidin-3-yl)-2-methyloxazole-5-carboxamide], the IC50 (read-out: IC50 or EC50) was 100 to 1000 nM.
Take `C[C@H]1C(=O)N(c2ccc3c(cnn3-c3ccc(F)cc3)c2)[C@H](c2ccccc2Cl)[C@H]1NC(=O)c1ncccn1` (racemic) [Example 88, N-[rac-(2R,3S,4R)-2-(2-Chlorophenyl)-1-[1-(4-fluorophenyl)-1H-indazol-5-yl]-4-methyl-5-oxo-pyrrolidin-3-yl]-pyrimidine-2-carboxylic acid amide]: the IC50 (read-out: IC50 or EC50) was less than 100 nM.
Still for that read-out and setting: in the case of `Cc1ncsc1C(=O)N[C@H]1[C@H](c2ccccc2)N(c2ccc3c(cnn3-c3ccc(F)cc3)c2)C(=O)C1(C)C` [Example 38a, N-((2S,3R)-1-(1-(4-fluorophenyl)-1H-indazol-5-yl)-4,4-dimethyl-5-oxo-2-phenylpyrrolidin-3-yl)-4-methylthiazole-5-carboxamide] it was 100 to 1000 nM.
On the same count and under the same terms, in the case of `C[C@H]1C(=O)N(c2ccc3c(cnn3-c3ccc(F)cc3)c2)[C@H](c2ccc(Cl)s2)[C@H]1NC(=O)C(C)(F)F` (racemic) [Example 125, N-[rac-(2S,3S,4R)-2-(5-Chloro-thiophen-2-yl)-1-[1-(4-fluorophenyl)-1H-indazol-5-yl]-4-methyl-5-oxo-pyrrolidin-3-yl]-2,2-difluoro-propionamide] it was less than 100 nM; in that of `C[C@@H]1C(=O)N(c2ccc3c(cnn3-c3ccc(F)cc3)c2)[C@H](c2ccccc2)[C@H]1NC(=O)c1ccn(C)n1` (racemic) [Example 64, N-[rac-(2R,3S,4S)-1-[1-(4-Fluorophenyl)-1H-indazol-5-yl]-4-methyl-5-oxo-2-phenyl-pyrrolidin-3-yl]-1-methyl-1H-pyrazole-3-carboxylic acid amide], less than 100 nM; in that of `CC[C@@H]1[C@@H](NS(C)(=O)=O)[C@H](Cc2ccccc2)C(=O)N1c1ccc2c(cnn2-c2ccc(F)cc2)c1` (racemic) [Example 91, N-[rac-(2R,3S,4S)-4-Benzyl-2-ethyl-1-[1-(4-fluorophenyl)-1H-indazol-5-yl]-5-oxo-pyrrolidin-3-yl]-methanesulfonic acid amide], 1000 to 15000 nM.
Consider `O=C(N[C@@H]1[C@@H](c2ccccc2)N(c2ccc3c(cnn3-c3ccc(F)cc3)c2)C(=O)C12CCC2)C1CC1` [Example 135, N-((7R,8S)-6-(1-(4-fluorophenyl)-1H-indazol-5-yl)-5-oxo-7-phenyl-6-azaspiro[3.4]octan-8-yl)cyclopropanecarboxamid], for which the IC50 under setting [1] was less than 100 nM.
As for `COc1ccc([C@@H]2[C@@H](NC(=O)C3CC3)[C@H](C)C(=O)N2c2ccc3c(cnn3-c3ccc(F)cc3)c2)cc1` (racemic) [Example 133, N-[rac-(2R,3S,4S)-1-[1-(4-Fluorophenyl)-1H-indazol-5-yl]-2-(4-methoxyphenyl)-4-methyl-5-oxo-pyrrolidin-3-yl]-cyclopropanecarboxylic acid amide], the IC50 (read-out: IC50 or EC50) lay in the range of 100 to 1000 nM.
On the same count and under the same terms, in the case of `Cc1ncoc1C(=O)N[C@H]1[C@H](c2ccccc2)N(c2ccc3c(cnn3-c3ccc(F)cc3)c2)C(=O)C1(C)C` [Example 45b, N-((2S,3R)-1-(1-(4-fluorophenyl)-1H-indazol-5-yl)-4,4-dimethyl-5-oxo-2-phenylpyrrolidin-3-yl)-4-methyloxazole-5-carboxamide] it was 100 to 1000 nM; in that of `CC[C@@H]1[C@@H](NC(=O)C(C)(F)F)[C@H](Cc2ccccc2)C(=O)N1c1ccc2c(cnn2-c2ccc(F)cc2)c1` (racemic) [Example 107, N-[rac-(2R,3S,4S)-4-Benzyl-2-ethyl-1-[1-(4-fluorophenyl)-1H-indazol-5-yl]-5-oxo-pyrrolidin-3-yl]-2,2-difluoro-propionamide], 1000 to 15000 nM.
The same measure, in the same setting: then `C[C@@]1(CC2CC2)C(=O)N(c2ccc3c(cnn3-c3ccc(F)cc3)c2)[C@H](c2ccccc2)[C@H]1NC(=O)C1CC1` (racemic) [Example 149, N-(rac-(2R,3S,4S)-4-(cyclopropylmethyl)-1-(1-(4-fluorophenyl)-1H-indazol-5-yl)-4-methyl-5-oxo-2-phenylpyrrolidin-3-yl)cyclopropanecarboxamide], with less than 100 nM; and `C[C@@]1(c2ccc(Cl)s2)[C@@H](NC(=O)C2CC2)CC(=O)N1c1ccc2c(cnn2-c2ccc(F)cc2)c1` [Example 151, N-((2S,3S)-2-(5-chlorothiophen-2-yl)-1-(1-(4-fluorophenyl)-1H-indazol-5-yl)-2-methyl-5-oxopyrrolidin-3-yl)cyclopropanecarboxamide], with 100 to 1000 nM; and `Cc1cccc([C@@H]2[C@@H](NS(C)(=O)=O)[C@@H](C)C(=O)N2c2ccc3c(cnn3-c3ccc(F)cc3)c2)c1` (racemic) [Example 76, N-[rac-(2R,3S,4R)-1-[1-(4-Fluorophenyl)-1H-indazol-5-yl]-4-methyl-2-m-tolyl-5-oxo-pyrrolidin-3-yl]-methanesulfonic acid amide], with less than 100 nM.
Same read-out and setting: in the case of `COc1ccc([C@@H]2[C@@H](NC(=O)c3ncccn3)[C@H](C)C(=O)N2c2ccc3c(cnn3-c3ccc(F)cc3)c2)cc1` (racemic) [Example 85, N-[rac-(2R,3S,4S)-1-[1-(4-Fluorophenyl)-1H-indazol-5-yl]-2-(4-methoxyphenyl)-4-methyl-5-oxo-pyrrolidin-3-yl]-pyrimidine-2-carboxylic acid amide] it was 100 to 1000 nM.
The molecule `Cn1ccc(C(=O)N[C@@H]2[C@@H](c3ccccc3)N(c3ccc4c(cnn4-c4ccc(F)cc4)c3)C(=O)C2(C)C)n1` [Example 37, N-((2R,3S)-1-(1-(4-fluorophenyl)-1H-indazol-5-yl)-4,4-dimethyl-5-oxo-2-phenylpyrrolidin-3-yl)-1-methyl-1H-pyrazole-3-carboxamide] had an IC50 under setting [1] of less than 100 nM.
